Laboratory results from publication PMC11200585, “Prospects for Prostate Cancer Chemotherapy: Cytotoxic Evaluation and Mechanistic Insights of Quinolinequinones with ADME/PK Profile” (Biomedicines, 2024).

Key:
[1] = In vitro metabolic stability; format: in vitro ADME, rat (Sprague-Dawley); conditions: Rat liver microsomes; for % Metabolism in 30 min: 0.5 µM, 0.5 mg/mL protein; for half-life at 0.5 µM / microsomal CLint at 0.5 µM: male, Sprague-Dawley, pH 7.4
Procedure: (§1) S2. ADME and PK Profiling
(§2) S2.1. In vitro Metabolic Stability Study […]
(§3) metabolic stability of AQQ1 and AQQ2. A final protein (liver microsomal) concentration of 0.5 mg/mL and final test substance (AQQ1 and AQQ2) concentration of 0.5 µM were used for the study. To the respective microsomes at a volume of 12.5 µL in the well, 2.5 µL of test substance ([…] in acetonitrile: dimethyl sulfoxide, 96:4) in the presence and absence of NADPH (50 µL, 10 mM) were added and the final volume made up to 500 µL with sodium phosphate buffer (50 mM, pH 7.4). The one without NADPH served as control. Sampling (50 µL) were done at the following time points: 0, 5, 10, 15, and 30 min for sample and at 0 and 30 min for control.
(§4) Acetonitrile (150 µL) was used as quenching solvent, internal standard (Rolipram) was added, vortexed/centrifuged and the aliquot from the supernatant was analyzed using LC-MS/MS. All the experiments were performed in duplicate.

[2] = In vitro metabolic stability; format: in vitro ADME, dog (Beagle); conditions: Dog liver microsomes; for % Metabolism in 30 min: 0.5 µM, 0.5 mg/mL protein; for half-life at 0.5 µM / microsomal CLint at 0.5 µM: male, Beagle, pH 7.4
Procedure: as §1, §2, §3, §4

M14 = experiment: NCI-60 one-dose screen (melanoma); format: cell-based, human; conditions: 10 µM single dose, 48 h
CAKI-1 = experiment: NCI-60 one-dose screen (renal cancer); format: cell-based, human; conditions: 10 µM single dose, 48 h
RXF 393 = experiment: NCI-60 one-dose screen (renal cancer); format: cell-based, human; conditions: 10 µM single dose, 48 h
DU-145 cells [3] = experiment: Scratch assay (cell migration); format: cell-based; conditions: Homo sapiens, 24 h, read-out: DU-145 cell migration inhibited
Procedure: DU-145 cells were grown in 6-well plates until they reached confluence. A straight-line scratch was then carefully created in the cell layer using a sterile pipette tip. The medium was replaced to remove any detached cells. The cells were treated with varying concentrations of AQQ1 (1, 2.5, and 5 µM) along with negative control for 24 h and the cells were allowed to migrate into the denuded area. The brightfield images were taken under the microscope at 0 h and over 24 h. The extent of wound closure is quantified by measuring the change in the width of the scratch with Fiji Image J wound healing size macro [20].

DU-145 cells [4] = experiment: Colony formation assay; format: cell-based, human; conditions: 24 h treatment, 10 days growth
Procedure: DU-145 cells were seeded in 6-well plates at a density of 1000 cells/well and allowed to incubate overnight. Then, the cells were treated with varying concentrations of AQQ1 (1, 2.5, and 5 µM) along with negative control and 2.5 µM DOXO for 24 h. After a medium refreshment, the cells were allowed to grow for 10 days. After incubation, the colonies are fixed with cold methanol for 5 min and then stained with a 0.5% crystal violet solution (prepared in 10% methanol) for 20 min. The plates were allowed to air-dry and the colonies were counted manually.

DU-145 cells [5] = experiment: Cell cycle assay (flow cytometry, PI); format: cell-based, human; conditions: 24 h, highest concentrations
Procedure: Cells were subjected to AQQ1 and DOXO treatments as previously described for apoptosis necrosis analysis. For cell cycle analysis, a cell population of 1 × 10^6 was collected, centrifuged, and the supernatant was removed. The resulting cellular pellet was re-suspended in 70% cold ethanol in PBS. Subsequently, the cells underwent a single PBS wash, followed by incubation in PBS containing […] PI (Sigma-Aldrich, St. Louis, MO, USA) and 2 mg/mL DNase-free RNase-A (Affymetrix, Inc., Santa Barbara, CA, USA) for 30 min at room temperature in a light-protected environment. Analysis was performed using the BD FACS Calibur Flow Cytometry System, and the BD CellQuest Pro Software software (version 5.1, Becton Dickinson, USA) was employed to determine cell cycle phase distributions in comparison to the control group.

DU-145 cells [6] = experiment: Apoptosis necrosis analysis (Annexin V-FITC / PI flow cytometry); format: cell-based, human; conditions: 1, 2.5, 5 µM, 24 h
Procedure: To assess cellular apoptosis and necrosis, a fluorochrome-labelled Annexin V (FITC) and Propidium Iodide (PI) staining kit (SONY Biotechnology, San Jose, CA, USA) was used according to the manufacturer’s protocol. DU-145 cells were initially seeded at a density of 1 × 10^6 cells per well in 6-well plates. After an incubation period, the cells were treated with varying concentrations of AQQ1 (1, 2.5, and 5 µM) along with negative control for 24 h. Then, the cells were detached using trypsin and then suspended in 500 µL of 1× Binding Buffer. Subsequently, 3 µL of Propidium Iodide (PI) and 5 µL of Annexin V-FITC were added to the cell suspension, followed by a 15 min incubation at room temperature in the dark. Post-incubation, cell analysis was performed via flow cytometry using the BD FACS Calibur Flow Cytometry System. The percentages of apoptotic and necrotic cells were determined using BD CellQuest Pro Software version 5.1 (both from Becton Dickinson, Sunnyvale, CA, USA).

DU-145 cells [7] = experiment: Oxidative stress: intracellular ROS (DCFDA, flow cytometry); format: cell-based, human; conditions: 1, 2.5, 5 µM, 24 h
Procedure: DU-145 cells were initially seeded at a density of 1 × 10^6 cells per well in 6-well plates. Cells were subjected to AQQ1 treatments as described earlier. After an incubation period, the cells were treated with varying concentrations of AQQ1 (1, 2.5, and 5 µM) for 24 h. ROS analysis was carried out using the DCFDA oxidation method according to Eruslanov and Kusmartsev with some modifications. For positive control, the cells were exposed to 100 µM H2O2 for 30 min. Then, the medium was discarded, 20 µM DCDFA (Sigma-Aldrich, USA) in culture medium was added to the wells, and plates were incubated for 15 min in the dark. The cells were analysed with NovoCyte (Agilent, Palo Alto, CA, USA) flow cytometry using NovoExpress version 1.6.2 software (Agilent, USA).

Compound | % Metabolism in 30 min [1] | half-life at 0.5 µM [1] | microsomal CLint at 0.5 µM [1] | % Metabolism in 30 min [2] | half-life at 0.5 µM [2] | microsomal CLint at 0.5 µM [2] | GP (growth percentage) (M14) | GP (growth percentage) (CAKI-1) | GP (growth percentage) (RXF 393) | inhibition at 1 µM (DU-145 cells [3]; 1 μM) | inhibition at 2.5 µM (DU-145 cells [3]; 2.5 μM) | inhibition at 5 µM (DU-145 cells [3]; 5 μM) | colony-forming ability (DU-145 cells [4]) | population of cells in the G0/G1 phase (DU-145 cells [5]) | live and necrotic cell counts (DU-145 cells [6]) | intracellular ROS levels (DU-145 cells [7])
CCOc1ccccc1NC1=C(Cl)C(=O)c2nc(C)ccc2C1=O [AQQ2] | 100% | 3 min | 501 µL/min/mg | 79.5% | 17 min | 84 µL/min/mg |  |  |  |  |  |  |  |  |  | 
COc1cc(NC2=C(Cl)C(=O)c3nc(C)ccc3C2=O)cc(OC)c1 [AQQ5] |  |  |  |  |  |  | −95.99% | −96.53% | −97.24% |  |  |  |  |  |  | 
COc1ccccc1NC1=C(Cl)C(=O)c2nc(C)ccc2C1=O [AQQ1] | 100% | 2 min | 656 µL/min/mg | 41.5% | 31 min | 45 µL/min/mg |  |  |  | 13.4% | 23.7% | 49.8% | significantly reduced the colony-forming ability | significantly increased the population of cells in the G0/G1 phase | reduced live cell counts and increased necrotic cells | significantly increased ROS levels dose-dependently
